Assay results published in patent US20120213758A1, “BIARYL PDE4 INHIBITORS FOR TREATING PULMONARY AND CARDIOVASCULAR DISORDERS” (DeCODE Genetics enf, priority 2007, published 2012).
Where a name gives a salt, the structure may show the parent alone. Read-outs that look alike come from different tables or passages of the source.

Experiments:
hPDE4D = hPDE4D (Homo sapiens, UniProt Q08499); assay: In-vitro real-time enzyme-coupled spectrophotometric assay for PDE4 enzymes (hPDE4D)
hPDE4B = hPDE4B (Homo sapiens, UniProt Q07343); assay: In-vitro real-time enzyme-coupled spectrophotometric assay for PDE4 enzymes (hPDE4B)
Sequence of hPDE4B (Q07343 whole entry): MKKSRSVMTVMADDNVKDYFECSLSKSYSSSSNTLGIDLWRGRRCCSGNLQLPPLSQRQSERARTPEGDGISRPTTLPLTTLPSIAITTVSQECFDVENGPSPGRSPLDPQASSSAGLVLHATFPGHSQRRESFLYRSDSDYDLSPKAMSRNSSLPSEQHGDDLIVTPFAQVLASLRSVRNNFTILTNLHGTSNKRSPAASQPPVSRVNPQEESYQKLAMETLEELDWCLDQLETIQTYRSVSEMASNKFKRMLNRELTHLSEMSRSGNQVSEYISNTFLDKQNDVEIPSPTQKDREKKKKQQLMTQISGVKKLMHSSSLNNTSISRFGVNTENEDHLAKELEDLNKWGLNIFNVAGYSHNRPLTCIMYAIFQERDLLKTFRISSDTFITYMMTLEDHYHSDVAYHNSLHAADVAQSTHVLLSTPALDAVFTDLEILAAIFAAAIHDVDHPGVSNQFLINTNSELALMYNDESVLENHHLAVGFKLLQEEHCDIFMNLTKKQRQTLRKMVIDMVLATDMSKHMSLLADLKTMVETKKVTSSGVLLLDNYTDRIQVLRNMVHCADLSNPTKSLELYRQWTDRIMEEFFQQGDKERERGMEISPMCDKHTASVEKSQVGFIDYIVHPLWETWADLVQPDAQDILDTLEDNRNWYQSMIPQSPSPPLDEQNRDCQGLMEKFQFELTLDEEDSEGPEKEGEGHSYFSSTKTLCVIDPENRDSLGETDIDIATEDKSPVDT

Sequence of hPDE4D (Q08499 whole entry): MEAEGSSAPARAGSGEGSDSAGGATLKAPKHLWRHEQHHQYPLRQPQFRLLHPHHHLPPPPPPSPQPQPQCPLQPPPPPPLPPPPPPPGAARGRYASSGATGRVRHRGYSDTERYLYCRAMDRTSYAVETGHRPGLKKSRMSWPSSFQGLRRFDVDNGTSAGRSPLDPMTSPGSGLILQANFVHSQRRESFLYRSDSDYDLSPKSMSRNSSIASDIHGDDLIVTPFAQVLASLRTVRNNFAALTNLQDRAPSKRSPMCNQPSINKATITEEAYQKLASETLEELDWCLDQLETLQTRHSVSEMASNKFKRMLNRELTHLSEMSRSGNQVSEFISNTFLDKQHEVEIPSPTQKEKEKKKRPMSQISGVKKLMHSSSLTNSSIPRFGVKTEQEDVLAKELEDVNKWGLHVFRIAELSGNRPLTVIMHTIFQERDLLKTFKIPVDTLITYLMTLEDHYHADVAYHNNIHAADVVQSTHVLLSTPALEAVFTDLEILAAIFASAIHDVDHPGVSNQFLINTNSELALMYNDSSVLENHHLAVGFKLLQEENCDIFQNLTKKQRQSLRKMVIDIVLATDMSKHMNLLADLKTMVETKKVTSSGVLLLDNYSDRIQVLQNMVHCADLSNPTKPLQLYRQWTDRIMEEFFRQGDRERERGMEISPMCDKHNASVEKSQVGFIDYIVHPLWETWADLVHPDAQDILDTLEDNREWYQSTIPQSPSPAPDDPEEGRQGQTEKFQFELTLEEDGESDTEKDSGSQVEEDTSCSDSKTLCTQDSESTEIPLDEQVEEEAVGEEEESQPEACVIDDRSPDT

SMILES | IC50 (hPDE4D) | IC50 (hPDE4B) | IC50 (hPDE4B; read-out: hPDE4B activity, enzyme-coupled NADH assay, absorbance at 340 nm) | IC50 (hPDE4D; read-out: hPDE4D activity, enzyme-coupled NADH assay, absorbance at 340 nm)
COc1ccc(Cc2ccc(N3CCC[C@H]3C(=O)O)nc2)cc1-c1cccc(Cl)c1 [Example A-068, (S)-1-[5-(3′-chloro-6-methoxy-biphenyl-3-ylmethyl)-pyridin-2-yl]-pyrrolidine-2-carboxylic acid] | < 5 µM | < 5 µM |  | 
COc1ccc(Cc2ccc(C(=O)O)nc2)c(F)c1-c1cccc(C(C)=O)c1 [Example A-021, 5-(3′-Acetyl-2-fluoro-6-methoxy-biphenyl-3-ylmethyl)-pyridine-2-carboxylic acid] | 5 to 20 µM | 5 to 20 µM |  | 
COc1ccc(Cc2ccc(N(C)CC(=O)O)nc2)cc1-c1cccc(Cl)c1 [Example A-077, {[5-(3′-chloro-6-methoxy-biphenyl-3-ylmethyl)-pyridin-2-yl]-methyl-amino}-acetic acid] | < 5 µM |  |  | 
COC(=O)c1ccc(Cc2ccc(OC)c(-c3cccc(C(C)=O)c3)c2F)cc1 [Example A-018, 4-(3′-Acetyl-2-fluoro-6-methoxy-biphenyl-3-ylmethyl)-benzoic acid methyl ester] | < 5 µM | 20 to 40 µM |  | 
COC(=O)c1ccc(Cc2ccc(OC)c(-c3cccc(C(C)=O)c3)c2F)cn1 [Example A-020, 5-(3′-Acetyl-2-fluoro-6-methoxy-biphenyl-3-ylmethyl)-pyridine-2-carboxylic acid methyl ester] | < 5 µM | < 5 µM |  | 
COc1ccc(Cc2nnc(NC(=O)NCCC(=O)O)s2)c(F)c1-c1cccc(Cl)c1 [Example A-027, 3-{3-[5-(3′-Chloro-2-fluoro-6-methoxy-biphenyl-3-ylmethyl)-[1,3,4]thiadiazol-2-yl]-ureido}-propionic acid] | < 5 µM | 20 to 40 µM |  | 
COC(=O)[C@H]1C[C@H](O)CN1Cc1ccc(OC)c(-c2cccc([N+](=O)[O-])c2)c1 [Example A-005, (2R,4S)-4-Hydroxy-1-(6-methoxy-3′-nitro-biphenyl-3-ylmethyl)-pyrrolidine-2-carboxylic acid methyl ester] | 20 to 40 µM |  |  | 
COc1ccc(Cc2ccc(F)cc2)cc1-c1ccc[n+]([O-])c1 [Example B-084, 3-[5-(4-Fluoro-benzyl)-2methoxy-phenyl]-pyridine 1-oxide] | 5 to 20 µM |  |  | 
COc1ccc(Cn2cnc3c(Cl)nc(N)nc32)cc1-c1cccc([N+](=O)[O-])c1 [Example A-003, 6-Chloro-9-(6-methoxy-3′-nitro-biphenyl-3-ylmethyl)-9H-purin-2-ylamine] | < 5 µM | 5 to 20 µM |  | 
COc1ccc(Cn2ccc(C(=O)O)cc2=O)cc1-c1cccc([N+](=O)[O-])c1 [Example A-007, 1-(6-Methoxy-3′-nitro-biphenyl-3-ylmethyl)-2-oxo-1,2-dihydro-pyridine-4-carboxylic acid] | 5 to 20 µM | 5 to 20 µM |  | 
COC(=O)c1ccc(Cc2ccc(OC(F)F)c(-c3cccc(Cl)c3)c2)cn1 [Example A-075, 5-(3′-Chloro-6-difluoromethoxy-biphenyl-3-ylmethyl)-pyridine-2-carboxylic acid methyl ester] | < 5 µM | < 5 µM |  | 
COc1ccc(CN2C(=O)c3ccccc3S2(=O)=O)cc1-c1cccc([N+](=O)[O-])c1 [Example A-002, 2-(6-Methoxy-3′-nitro-biphenyl-3-ylmethyl)-1,1-dioxo-1,2-dihydro-1lambda*6*-benzo[d]isothiazol-3-one] | 5 to 20 µM |  |  | 
CCOC(=O)c1cn2cc(Cc3ccc(OC)c(-c4cccc(Cl)c4)c3F)ccc2n1 [Example A-039, 6-(3′-Chloro-2-fluoro-6-methoxy-biphenyl-3-ylmethyl)-imidazo[1,2-a]pyridine-2-carboxylic acid ethyl ester] | < 5 µM |  |  | 
COc1ccc(Cc2ccc(NC(=O)NCC(=O)O)cc2)c(F)c1-c1cccc(Br)c1 [Example A-022, {3-[4-(3′-Bromo-2-fluoro-6-methoxy-biphenyl-3-ylmethyl)-phenyl]-ureido}-acetic acid] | < 5 µM |  |  | 
CCOC(=O)CNC(=O)Nc1nnc(Cc2ccc(OC)c(-c3cccc(Cl)c3)c2F)s1 [Example A-024, {3-[5-(3′-Chloro-2-fluoro-6-methoxy-biphenyl-3-ylmethyl)-[1,3,4]thiadiazol-2-yl]-ureido}-acetic acid ethyl ester] | < 5 µM |  |  | 
COc1ccc(Cc2ccc(C(=O)O)nc2)cc1-c1cccc(Cl)c1 [Example A-071, 5-(3′-Chloro-6-methoxy-biphenyl-3-ylmethyl)-pyridine-2-carboxylic acid] | < 5 µM |  |  | 
COc1ccc(Cc2nnc(NC(=O)NCC(=O)O)s2)c(F)c1-c1cccc(Cl)c1 [Example A-026, {3-[5-(3′-Chloro-2-fluoro-6-methoxy-biphenyl-3-ylmethyl)-[1,3,4]thiadiazol-2-yl]-ureido}-acetic acid] | < 5 µM |  |  | 
COc1ccc(Cc2ccc(NC(=O)NCCC(=O)O)cc2)c(F)c1-c1cccc(Br)c1 [Example A-023, 3-{3-[4-(3′-Bromo-2-fluoro-6-methoxy-biphenyl-3-ylmethyl)-phenyl]-ureido}-propionic acid] | < 5 µM |  |  | 
CCOC(=O)CCNC(=O)Nc1ccc(Cc2ccc(OC)c(-c3cccc(Cl)c3)c2F)cn1 [Example A-029] | < 5 µM |  |  | 
NC(=O)Nc1ccc(Cc2ccc(OS(=O)(=O)O)c(-c3cccc(Cl)c3)c2)cc1 [Example A-062, Sodium sulfate of [4-(3′-Chloro-6-hydroxy-biphenyl-3-ylmethyl)-phenyl]-urea] |  |  |  | < 5 µM
CN(CC(=O)O)c1ccc(Cc2ccc(OC(F)F)c(-c3cccc(Cl)c3)c2)cn1 [Example A-078, {[5-(3′-Chloro-6-difluoromethoxy-biphenyl-3-ylmethyl)-pyridin-2-yl]-methyl-amino}-acetic acid] | < 5 µM |  |  | 
C[C@H](C(=O)O)N(C)c1ccc(Cc2ccc(OC(F)F)c(-c3cccc(Cl)c3)c2)cn1 [Example A-079, (R)-2-{[5-(3′-Chloro-6-difluoromethoxy-biphenyl-3-ylmethyl)-pyridin-2-yl]-methyl-amino}-propionic acid] | < 5 µM |  |  | 
CCOC(=O)CCNC(=O)Nc1nnc(Cc2ccc(OC)c(-c3cccc(Cl)c3)c2F)s1 [Example A-025, 3-{3-[5-(3′-Chloro-2-fluoro-6-methoxy-biphenyl-3-ylmethyl)-[1,3,4]thiadiazol-2-yl]-ureido}-propionic acid ethyl ester] | < 5 µM |  |  | 

Now from value to compound, other results behind:

IC50 (hPDE4D) | IC50 (hPDE4B) | IC50 (hPDE4B; read-out: hPDE4B activity, enzyme-coupled NADH assay, absorbance at 340 nm) | SMILES | IC50 (hPDE4D; read-out: hPDE4D activity, enzyme-coupled NADH assay, absorbance at 340 nm)
< 5 µM | < 5 µM |  | COc1ccc(Cc2ccc(NC(=O)NCC(=O)O)nc2)c(F)c1-c1cccc(Cl)c1 [Example A-028] | 
< 5 µM | < 5 µM |  | COc1ccc(Cc2ccc(N3CCC[C@H]3C(=O)O)nc2)c(F)c1-c1cccc(Cl)c1 [Example A-063, (S)-1-[5-(3′-chloro-2-fluoro-6-methoxy-biphenyl-3-ylmethyl)-pyridin-2-yl]-pyrrolidine-2-carboxylic acid] | 
< 5 µM | < 5 µM |  | COc1ccc(Cc2ccc(N3CC[C@H]3C(=O)O)nc2)c(F)c1-c1cccc(Cl)c1 [Example A-066, (S)-1-[5-(3′-chloro-2-fluoro-6-methoxy-biphenyl-3-ylmethyl)-pyridin-2-yl]-azetidine-2-carboxylic acid] | 
< 5 µM | < 5 µM |  | COc1ccc(Cc2ccc(N(CC(=O)O)C(C)=O)nc2)c(F)c1-c1cccc(Cl)c1 [Example A-037, {acetyl-[5-(3′-chloro-2-fluoro-6-methoxy-biphenyl-3-ylmethyl)-pyridin-2-yl]-amino}-acetic acid] | 
< 5 µM | 20 to 40 µM |  | COc1ccc(Cc2ccc(C(=O)N3CCC(C(=O)O)CC3)nc2)c(F)c1-c1cccc(Cl)c1 [Example A-034, 1-[5-(3′-Chloro-2-fluoro-6-methoxy-biphenyl-3-ylmethyl)-pyridine-2-carbonyl]-piperidine-4-carboxylic acid] | 
< 5 µM | < 5 µM |  | COc1ccc(Cc2ccc(C(=O)NS(C)(=O)=O)nc2)c(F)c1-c1cccc(Cl)c1 [Example A-050, N-[5-(3′-Chloro-2-fluoro-6-methoxy-biphenyl-3-ylmethyl)-pyridine-2-carbonyl]-methanesulfonamide] | 
< 5 µM | 5 to 20 µM |  | COc1ccc(Cc2ccc(N3CCCC(C(=O)O)C3)nc2)c(F)c1-c1cccc(Cl)c1 (centres unmarked) [Example A-070, 5′-(3′-Chloro-2-fluoro-6-methoxy-biphenyl-3-ylmethyl)-3,4,5,6-tetrahydro-2H-[1,2′]bipyridinyl-3-carboxylic acid] | 
< 5 µM |  |  | CCNC(=O)N(CC(=O)O)c1ccc(Cc2ccc(OC)c(-c3cccc(Cl)c3)c2F)cn1 [Example A-056, {1-[5-(3′-chloro-2-fluoro-6-methoxy-biphenyl-3-ylmethyl)-pyridin-2-yl]-3-ethyl-ureido}-acetic acid] | 
< 5 µM |  |  | COC(=O)[C@@H]1CCCN1c1ccc(Cc2ccc(OC)c(-c3cccc(Cl)c3)c2F)cn1 [Example A-069, (S)-1-[5-(3′-chloro-2-fluoro-6-methoxy-biphenyl-3-ylmethyl)-pyridin-2-yl]-pyrrolidine-2-carboxylic acid methyl ester] | 
< 5 µM |  |  | COC(=O)C1CCN(c2ncc(Cc3ccc(OC)c(-c4cccc(Cl)c4)c3F)cn2)C1 (centres unmarked) [Example A-045, 1-[5-(3′-Chloro-2-fluoro-6-methoxy-biphenyl-3-ylmethyl)-pyrimidin-2-yl]-pyrrolidine-3-carboxylic acid methyl ester] | 
< 5 µM |  |  | CCOC(=O)C1CCN(C(=O)c2ccc(Cc3ccc(OC)c(-c4cccc(Cl)c4)c3F)cn2)CC1 [Example A-033, 1-[5-(3′-Chloro-2-fluoro-6-methoxy-biphenyl-3-ylmethyl)-pyridine-2-carbonyl]-piperidine-4-carboxylic acid ethyl ester] | 
 |  | < 5 µM | COc1ccc(Cc2ccc(N3CCC3C(=O)O)nc2)c(F)c1-c1cccc(Cl)c1 (centres unmarked) [Example A-055, 1-[5-(3′-chloro-2-fluoro-6-methoxy-biphenyl-3-ylmethyl)-pyridin-2-yl]-azetidine-2-carboxylic acid] | 
